Data: patent US9169260B2 (MERCK SHARP & DOHME CORP., priority 2011, dated 2015)

Target: GST tagged IRAK-4 (Homo sapiens (Human), UniProt Q9NWZ3)
Test: IRAK-4 Kinase Assay (IMAP fluorescence polarization)
Assay type: biochemical
Conditions: 100 μM ATP, 30 minutes at 25° C.
Outline: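 Activity was read by IMAP fluorescence polarization, where phosphopeptide binding to M(III) nanoparticles raises FP. The 30-minute, 25° C reaction used 100 μM ATP, 100 nM RP7030 substrate and 0.5 nM GST-IRAK-4 in pH 7.2 Tris buffer with MgCl2, DTT and Tween 20.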

Chain of GST tagged IRAK-4 (Q9NWZ3 whole entry): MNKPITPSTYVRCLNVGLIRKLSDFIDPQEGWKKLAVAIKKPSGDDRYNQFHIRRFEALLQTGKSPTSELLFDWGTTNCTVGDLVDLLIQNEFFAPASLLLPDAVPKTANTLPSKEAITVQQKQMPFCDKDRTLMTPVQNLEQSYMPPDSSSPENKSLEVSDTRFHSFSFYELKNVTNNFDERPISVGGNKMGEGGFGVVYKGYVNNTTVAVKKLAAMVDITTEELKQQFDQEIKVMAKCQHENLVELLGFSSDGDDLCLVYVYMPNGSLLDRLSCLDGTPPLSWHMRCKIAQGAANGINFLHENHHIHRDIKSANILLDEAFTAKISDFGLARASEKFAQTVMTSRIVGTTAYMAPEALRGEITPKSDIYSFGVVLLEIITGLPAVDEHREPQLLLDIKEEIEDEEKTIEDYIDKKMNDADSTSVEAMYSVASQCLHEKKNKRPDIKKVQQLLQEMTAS

Row | SMILES | IC50 [µM] | IC50 (μM) [µM]
1 | Cc1ccc(-n2nc(C3CCN(S(C)(=O)=O)CC3)cc2NC(=O)c2cnn3cccnc23)nc1C [Example 174, N-(1-(5,6-dimethylpyridin-2-yl)-3-(1-(methylsulfonyl)piperidin-4-yl)-1H-pyrazol-5-yl)pyrazolo[1,5-a]pyrimidine-3-carboxamide] |  | < 1
2 | Cc1ccc(-n2nc(C3CC3)cc2NC(=O)c2cnn3cccnc23)cc1 [Example 130, N-(3-cyclopropyl-1-(p-tolyl)-1H-pyrazol-5-yl)pyrazolo[1,5-a]pyrimidine-3-carboxamide] |  | < 1
3 | Cc1ccc(-n2nc(C3CCN(C(C)C)CC3)cc2NC(=O)c2cnn3cccnc23)c(F)c1 [Example 58, N-(1-(2-fluoro-4-methylphenyl)-3-(1-isopropylpiperidin-4-yl)-1H-pyrazol-5-yl)pyrazolo[1,5-a]pyrimidine-3-carboxamide] | < 0.1 | 
4 | Cc1ccc(-n2nc(C3CCN(S(=O)(=O)Cc4noc5ccccc45)CC3)cc2NC(=O)c2cnn3cccnc23)cc1 [Example 356, N-[3-{1-[(1,2-benzisoxazol-3-ylmethyl)sulfonyl]piperidin-4-yl}-1-(4-methylphenyl)-1H-pyrazol-5-yl]pyrazolo[1,5-a]pyrimidine-3-carboxamide] |  | < 1
5 | CS(=O)(=O)N1CCC(c2cc(NC(=O)c3cnn4cccnc34)n(-c3ccc(C4CC4)cc3F)n2)CC1 [Example 73, N-(1-(4-cyclopropyl-2-fluorophenyl)-3-(1-(methylsulfonyl)piperidin-4-yl)-1H-pyrazol-5-yl)pyrazolo[1,5-a]pyrimidine-3-carboxamide] | < 0.1 | 
6 | CC(C)N1CCC(c2cc(NC(=O)c3cnn4cccnc34)n(-c3ccc(C4CC4)cc3)n2)CC1 [Example 55, N-(1-(4-cyclopropylphenyl)-3-(1-isopropylpiperidin-4-yl)-1H-pyrazol-5-yl)pyrazolo[1,5-a]pyrimidine-3-carboxamide] | < 0.1 | 
7 | CS(=O)(=O)N1CCC(c2cc(NC(=O)c3cnn4cccnc34)n(-c3nccn3S(C)(=O)=O)n2)CC1 [Example 188, N-(1-(1-(methylsulfonyl)-1H-imidazol-2-yl)-3-(1-(methylsulfonyl)piperidin-4-yl)-1H-pyrazol-5-yl)pyrazolo[1,5-a]pyrimidine-3-carboxamide] |  | > 1
8 | Cc1ccc(-n2nc(C3CCN(C4CC4)CC3)cc2NC(=O)c2cnn3cccnc23)cc1 [Example 40, N-(3-(1-cyclopropylpiperidin-4-yl)-1-(p-tolyl)-1H-pyrazol-5-yl)pyrazolo[1,5-a]pyrimidine-3-carboxamide] | < 0.1 | 
9 | Cc1ccc(-n2nc(-c3conc3C)cc2NC(=O)c2cnn3cccnc23)cc1 [Example 334, N-[3-(3-methylisoxazol-4-yl)-1-(4-methylphenyl)-1H-pyrazol-5-yl]pyrazolo[1,5-a]pyrimidine-3-carboxamide] |  | < 1
10 | Cc1ccc(-n2nc(C3CCN(C(=O)C4(O)CCC4)CC3)cc2NC(=O)c2cnn3cc(Br)cnc23)cc1 [Example 116, 6-bromo-N-(3-(1-(1-hydroxycyclobutanecarbonyl)piperidin-4-yl)-1-(p-tolyl)-1H-pyrazol-5-yl)pyrazolo[1,5-a]pyrimidine-3-carboxamide] | < 0.1 | 
11 | Cc1ccc(-n2nc(C3CCN(S(C)(=O)=O)CC3)cc2NC(=O)c2cnn3cccnc23)cc1 [Example 18, N-(3-(1-(methylsulfonyl)piperidin-4-yl)-1-(p-tolyl)-1H-pyrazol-5-yl)pyrazolo[1,5-a]pyrimidine-3-carboxamide] | < 0.1 | 
12 | Cc1ccc(-n2nc(-c3cncc(F)c3)cc2NC(=O)c2cnn3cccnc23)cc1 [Example 136, N-(3-(5-fluoropyridin-3-yl)-1-(p-tolyl)-1H-pyrazol-5-yl)pyrazolo[1,5-a]pyrimidine-3-carboxamide] |  | > 1

Second part, the compound after the results:

Row | IC50 [µM] | IC50 (μM) [µM] | SMILES
13 | < 0.1 |  | CC1(c2cc(NC(=O)c3cnn4cccnc34)n(-c3ccc(CN)cn3)n2)CC1 [Example 176, N-(1-(5-(aminomethyl)pyridin-2-yl)-3-(1-methylcyclopropyl)-1H-pyrazol-5-yl)pyrazolo[1,5-a]pyrimidine-3-carboxamide]
14 | < 0.1 |  | Cc1ccc(-n2nc(C3CCN(C4CCCOC4)CC3)cc2NC(=O)c2cnn3cccnc23)nc1 (stereo not shown) [Example 264, N-{1-(5-methylpyridin-2-yl)-3-[1-(tetrahydro-2H-pyran-3-yl)piperidin-4-yl]-1H-pyrazol-5-yl}pyrazolo[1,5-a]pyrimidine-3-carboxamide]
15 |  | > 1 | O=C(Nc1cc(C2CCNCC2)nn1-c1cc(F)cc(F)c1)c1cnn2cccnc12 [Example 67, N-(1-(3,5-difluorophenyl)-3-(piperidin-4-yl)-1H-pyrazol-5-yl)pyrazolo[1,5-a]pyrimidine-3-carboxamide]
16 | < 0.1 |  | Cc1ccc(-n2nc(C3CCN(C4CC(N(C)C)C4)CC3)cc2NC(=O)c2cnn3cccnc23)nc1 (stereo not shown) [Example 269, N-[3-{1-[3-(dimethylamino)cyclobutyl]piperidin-4-yl}-1-(5-methylpyridin-2-yl)-1H-pyrazol-5-yl]pyrazolo[1,5-a]pyrimidine-3-carboxamide]
17 | < 0.1 |  | [2H]C([2H])([2H])c1ccc(-n2nc(N3CCN(C)CC3)cc2NC(=O)c2cnn3cccnc23)nc1 [Example 198, N-(3-(4-methylpiperazin-1-yl)-1-(5-trideuteromethylpyridin-2-yl)-1H-pyrazol-5-yl)pyrazolo[1,5-a]pyrimidine-3-carboxamide]
18 | < 0.1 |  | Cc1ccc(-n2nc(C3=CCN(S(C)(=O)=O)CC3)cc2NC(=O)c2cnn3cccnc23)cc1 [Example 139, N-(3-(1-(methylsulfonyl)-1,2,3,6-tetrahydropyridin-4-yl)-1-(p-tolyl)-1H-pyrazol-5-yl)pyrazolo[1,5-a]pyrimidine-3-carboxamide]
19 | < 0.1 |  | Cc1ccc(-n2nc(N3CCN(C4CCC4)CC3)cc2NC(=O)c2cnn3cccnc23)nc1 [Example 320, N-[3-(4-cyclobutylpiperazin-1-yl)-1-(5-methylpyridin-2-yl)-1H-pyrazol-5-yl]pyrazolo[1,5-a]pyrimidine-3-carboxamide]
20 | < 0.1 |  | Cc1ccc(-n2nc(C3CCN(C4CCC(NS(C)(=O)=O)CC4)CC3)cc2NC(=O)c2cnn3cccnc23)cc1 (stereo not shown) [Example 252, N-[1-(4-methylphenyl)-3-(1-{4-[(methylsulfonyl)amino]cyclohexyl}piperidin-4-yl)-1H-pyrazol-5-yl]pyrazolo[1,5-a]pyrimidine-3-carboxamide]
21 |  | < 1 | Cc1ccc(-n2nc(C3CCN(S(=O)(=O)CCC(F)(F)F)CC3)cc2NC(=O)c2cnn3cccnc23)cc1 [Example 363, N-[1-(4-methylphenyl)-3-{1-[(3,3,3-trifluoropropyl)sulfonyl]piperidin-4-yl}-1H-pyrazol-5-yl]pyrazolo[1,5-a]pyrimidine-3-carboxamide]
22 |  | < 1 | COc1ccc(-n2nc(C3CCNCC3)cc2NC(=O)c2cnn3cccnc23)cc1 [Example 8, N-(1-(4-methoxyphenyl)-3-(piperidin-4-yl)-1H-pyrazol-5-yl)pyrazolo[1,5-a]pyrimidine-3-carboxamide]
23 | < 0.1 |  | Cc1ccc(-n2nc(C3CCN(Cc4cn[nH]c4)CC3)cc2NC(=O)c2cnn3cccnc23)cc1 [Example 233, N-{1-(4-methylphenyl)-3-[1-(1H-pyrazol-4-ylmethyl)piperidin-4-yl]-1H-pyrazol-5-yl}pyrazolo[1,5-a]pyrimidine-3-carboxamide]
24 | < 0.1 |  | Cc1ccc(-n2nc(C3CCN(C4CCC(C#N)CC4)CC3)cc2NC(=O)c2cnn3cccnc23)cc1 (stereo not shown) [Example 253, N-{3-[1-(4-cyanocyclohexyl)piperidin-4-yl]-1-(4-methylphenyl)-1H-pyrazol-5-yl}pyrazolo[1,5-a]pyrimidine-3-carboxamide]
25 | < 0.1 |  | Cc1ccc(-n2nc(C3CCN(C4CC(C(C)(C)C)C4)CC3)cc2NC(=O)c2cnn3cccnc23)cc1 (stereo not shown) [Example 256, N-{3-[1-(3-tert-butylcyclobutyl)piperidin-4-yl]-1-(4-methylphenyl)-1H-pyrazol-5-yl}pyrazolo[1,5-a]pyrimidine-3-carboxamide]
26 | < 0.1 |  | COc1cccc(CN2CC(c3cc(NC(=O)c4cnn5cccnc45)n(-c4ccc(C)cc4)n3)C2)n1 [Example 315, N-[3-{1-[(6-methoxypyridin-2-yl)methyl]azetidin-3-yl}-1-(4-methylphenyl)-1H-pyrazol-5-yl]pyrazolo pyrimidine-3-carboxamide]
27 |  | > 1 | Cc1ccc(-n2nc(C3CCN(S(=O)(=O)c4ccc(Cl)s4)CC3)cc2NC(=O)c2cnn3cccnc23)cc1 [Example 393, N-[3-{1-[(5-chlorothiophen-2-yl)sulfonyl]piperidin-4-yl}-1-(4-methylphenyl)-1H-pyrazol-5-yl]pyrazolo[1,5-a]pyrimidine-3-carboxamide]
28 | < 0.1 |  | Cc1ccc(-n2nc(C3CCN(C4CC5(CCCC5)C4)CC3)cc2NC(=O)c2cnn3cccnc23)cc1 [Example 257, N-[1-(4-methylphenyl)-3-(1-spiro[3.4]oct-2-ylpiperidin-4-yl)-1H-pyrazol-5-yl]pyrazolo[1,5-a]pyrimidine-3-carboxamide]
29 |  | < 1 | Cc1ccc(-n2nc(C3CCN(Cc4ccncc4)CC3)cc2NC(=O)c2cnn3cccnc23)cc1 [Example 224, N-(3-(1-(pyridin-4-ylmethyl)piperidin-4-yl)-1-(p-tolyl)-1H-pyrazol-5-yl)pyrazolo[1,5-a]pyrimidine-3-carboxamide]
30 |  | < 1 | Cc1ccc(-n2nc(C3CCN(S(=O)(=O)c4cn(C)c(C)n4)CC3)cc2NC(=O)c2cnn3cccnc23)cc1 [Example 386, N-[3-{1-[(1,2-dimethyl-1H-imidazol-4-yl)sulfonyl]piperidin-4-yl}-1-(4-methylphenyl)-1H-pyrazol-5-yl]pyrazolo[1,5-a]pyrimidine-3-carboxamide]
31 |  | < 1 | CC(=O)N1CC(N2CCC(c3cc(NC(=O)c4cnn5cccnc45)n(-c4ccc(C)cc4)n3)CC2)C1 [Example 248, N-{3-[1-(1-acetylazetidin-3-yl)piperidin-4-yl]-1-(4-methylphenyl)-1H-pyrazol-5-yl}pyrazolo pyrimidine-3-carboxamide]
